The test system of one assay is cyclin D1. Description: Cyclin D1 percentage degradation in Calu-1 cells (immunoblotting). The class given is cell-based. The note with it: 200 nM, 16 hours. In short, it runs like this:
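Cyclin D1 degradation was assessed by western blot. Clarified lysates, obtained by RIPA lysis with inhibitors and centrifugation at 13,000 rpm, were normalized by BCA protein assay and separated by SDS-PAGE. Bands were detected with Western ECL Substrate on a Bio-Rad ChemiDoc MP Imaging system and quantified in Image Lab software to derive percentage degradation.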
A general note: Immunoblotting shows a protein as a band on a membrane.

A further assay deals with T1, CDK4 (Homo sapiens, UniProt P11802).
T1 construct: endogenous in cells; host or cells: Calu-1
Description: CDK4 percentage degradation in Calu-1 cells (immunoblotting). The note with it: Calu-1 cells, 200 nM, 16 hours; read-out: CDK4 Degradation (200 nM). It is filed as cell-based. In short, it runs like this: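 CDK4 degradation was measured by immunoblotting. Cells were washed in cold PBS and lysed in RIPA buffer with inhibitors for 30 min at 4° C., then spun at 13,000 rpm to clear. After BCA protein determination, lysates were heated at 99° C. for 5 min in Laemmli buffer, resolved on SDS-PAGE, imaged on a ChemiDoc MP with ECL substrate, and band intensities quantified.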

T1 sequence (P11802 2-303 limits assumed): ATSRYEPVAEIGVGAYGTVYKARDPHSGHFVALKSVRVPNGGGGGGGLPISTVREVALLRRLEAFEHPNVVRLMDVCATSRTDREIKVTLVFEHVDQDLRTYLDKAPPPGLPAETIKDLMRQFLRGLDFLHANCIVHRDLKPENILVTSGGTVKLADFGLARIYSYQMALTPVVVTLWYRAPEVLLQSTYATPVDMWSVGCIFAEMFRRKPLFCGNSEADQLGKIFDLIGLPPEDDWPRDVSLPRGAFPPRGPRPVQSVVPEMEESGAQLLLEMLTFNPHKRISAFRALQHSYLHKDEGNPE
T1 sequence (P24385 whole entry partner): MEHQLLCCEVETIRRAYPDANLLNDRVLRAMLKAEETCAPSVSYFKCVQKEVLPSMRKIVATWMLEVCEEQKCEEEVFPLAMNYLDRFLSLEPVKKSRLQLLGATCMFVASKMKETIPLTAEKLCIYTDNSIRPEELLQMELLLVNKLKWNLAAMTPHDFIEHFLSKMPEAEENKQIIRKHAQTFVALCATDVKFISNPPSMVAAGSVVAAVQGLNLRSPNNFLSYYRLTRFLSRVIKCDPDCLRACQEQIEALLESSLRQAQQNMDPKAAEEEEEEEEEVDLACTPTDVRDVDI
T1 sequence (Q16531 2-1140 limits assumed, further chain): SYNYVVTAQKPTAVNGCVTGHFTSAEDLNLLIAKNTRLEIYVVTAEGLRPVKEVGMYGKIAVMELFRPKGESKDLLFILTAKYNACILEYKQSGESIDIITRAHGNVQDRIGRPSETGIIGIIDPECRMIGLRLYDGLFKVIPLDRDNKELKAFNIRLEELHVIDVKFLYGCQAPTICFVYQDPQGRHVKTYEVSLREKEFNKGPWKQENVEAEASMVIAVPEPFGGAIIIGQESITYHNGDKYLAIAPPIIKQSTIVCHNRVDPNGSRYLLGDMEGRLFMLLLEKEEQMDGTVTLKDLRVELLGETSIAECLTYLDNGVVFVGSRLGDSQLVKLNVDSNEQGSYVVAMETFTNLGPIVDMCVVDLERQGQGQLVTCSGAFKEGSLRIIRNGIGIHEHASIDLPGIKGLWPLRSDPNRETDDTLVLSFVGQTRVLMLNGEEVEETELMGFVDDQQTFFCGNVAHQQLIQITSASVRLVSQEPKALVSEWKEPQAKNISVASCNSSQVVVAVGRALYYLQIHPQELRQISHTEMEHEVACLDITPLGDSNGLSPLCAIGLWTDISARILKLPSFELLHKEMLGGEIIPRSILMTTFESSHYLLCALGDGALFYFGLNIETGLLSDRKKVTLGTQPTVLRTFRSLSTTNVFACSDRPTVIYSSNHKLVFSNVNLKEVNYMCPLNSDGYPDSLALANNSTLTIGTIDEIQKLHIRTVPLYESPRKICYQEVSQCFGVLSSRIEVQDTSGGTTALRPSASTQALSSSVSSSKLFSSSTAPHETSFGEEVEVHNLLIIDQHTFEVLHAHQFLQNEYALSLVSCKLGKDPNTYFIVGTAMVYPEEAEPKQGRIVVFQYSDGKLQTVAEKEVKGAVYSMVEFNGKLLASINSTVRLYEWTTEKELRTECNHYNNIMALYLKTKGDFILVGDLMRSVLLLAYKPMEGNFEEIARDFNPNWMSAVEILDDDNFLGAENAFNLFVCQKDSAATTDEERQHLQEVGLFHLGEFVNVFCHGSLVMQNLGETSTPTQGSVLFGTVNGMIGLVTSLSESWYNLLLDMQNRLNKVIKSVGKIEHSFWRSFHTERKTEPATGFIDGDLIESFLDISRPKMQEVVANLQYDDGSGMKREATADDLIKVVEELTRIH

Consider `CC(=O)c1c(C)c2cnc(Nc3ccc(N4CCN(CC(=O)NCCOCCOCCC(=O)Nc5ccccc5C(=O)Nc5ncc(C)s5)CC4)cn3)nc2n(C2CCCC2)c1=O` [CPD-051, 2-(3-(2-(2-(2-(4-(6-((6-Acetyl-8-cyclopentyl-5-methyl-7-oxo-7,8-dihydropyrido[2,3-d]pyrimidin-2-yl)amino)pyridin-3-yl)piperazin-1-yl)acetamido)ethoxy)ethoxy)propanamido)-N-(5-methylthiazol-2-yl)benzamide], for which the “CyclinD1 Degradation (200 nM)” value in the assay with cyclin D1 was “A (protein percentage degradation >=80%)”. For the same molecule, the inhibition at 0.2 µM on CDK4 was greater than 80%.

With `CC(=O)c1c(C)c2cnc(Nc3ccc(N4CCN(CC(=O)NCCOCCOCCC(=O)Nc5ccccc5C(=O)Nc5cc(C)n(C)n5)CC4)cn3)nc2n(C2CCCC2)c1=O` [CPD-052, 2-(3-(2-(2-(2-(4-(6-((6-Acetyl-8-cyclopentyl-5-methyl-7-oxo-7,8-dihydropyrido[2,3-d]pyrimidin-2-yl)amino)pyridin-3-yl)piperazin-1-yl)acetamido)ethoxy)ethoxy)propanamido)-N-(1,5-dimethyl-1H-pyrazol-3-yl)benzamide], in the assay with cyclin D1, the “CyclinD1 Degradation (200 nM)” value is given as “A (protein percentage degradation >=80%)”. Also, at CDK4, the inhibition at 0.2 µM lay in the range of 50 to 80%.

Take `CC(=O)c1c(C)c2cnc(Nc3ccc(N4CCN(CC(=O)NCCOCCOCCC(=O)Nc5ccccc5C(=O)Nc5ccccn5)CC4)cn3)nc2n(C2CCCC2)c1=O` [CPD-053, 2-(3-(2-(2-(2-(4-(6-((6-Acetyl-8-cyclopentyl-5-methyl-7-oxo-7,8-dihydropyrido[2,3-d]pyrimidin-2-yl)amino)pyridin-3-yl)piperazin-1-yl)acetamido)ethoxy)ethoxy)propanamido)-N-(pyridin-2-yl)benzamide]: the “CyclinD1 Degradation (200 nM)” value in the assay on cyclin D1 is “B (protein percentage degradation <80%, and >=50%)”. In addition, the inhibition at 0.2 µM on CDK4 was 50 to 80%.

Consider `CC(=O)c1c(C)c2cnc(Nc3ccc(N4CCN(CC(=O)NCCOCCOCCC(=O)Nc5ccccc5C(=O)Nc5cnc(C)cn5)CC4)cn3)nc2n(C2CCCC2)c1=O` [CPD-054, 2-(3-(2-(2-(2-(4-(6-((6-Acetyl-8-cyclopentyl-5-methyl-7-oxo-7,8-dihydropyrido[2,3-d]pyrimidin-2-yl)amino)pyridin-3-yl)piperazin-1-yl)acetamido)ethoxy)ethoxy)propanamido)-N-(5-methylpyrazin-2-yl)benzamide], for which the “CyclinD1 Degradation (200 nM)” value with cyclin D1 is recorded as “A (protein percentage degradation >=80%)”. Moreover, the inhibition at 0.2 µM on CDK4 fell in the range of 50 to 80%.

Take `CC(=O)c1c(C)c2cnc(Nc3ccc(N4CCN(CC(=O)NCCOCCOCCC(=O)Nc5ccccc5C(=O)Nc5ncc(C)cn5)CC4)cn3)nc2n(C2CCCC2)c1=O` [CPD-055, 2-(3-(2-(2-(2-(4-(6-((6-Acetyl-8-cyclopentyl-5-methyl-7-oxo-7,8-dihydropyrido[2,3-d]pyrimidin-2-yl)amino)pyridin-3-yl)piperazin-1-yl)acetamido)ethoxy)ethoxy)propanamido)-N-(5-methylpyrimidin-2-yl)benzamide]: the “CyclinD1 Degradation (200 nM)” value in the assay with cyclin D1 was “D (protein percentage degradation <30%)”. Further, at CDK4, the inhibition at 0.2 µM is less than 30%.

Consider `CC(=O)c1c(C)c2cnc(Nc3ccc(N4CCN(CC(=O)NCCOCCOCCC(=O)Nc5ccccc5C(=O)Nc5ccc(C)nn5)CC4)cn3)nc2n(C2CCCC2)c1=O` [CPD-056, 2-(3-(2-(2-(2-(4-(6-((6-Acetyl-8-cyclopentyl-5-methyl-7-oxo-7,8-dihydropyrido[2,3-d]pyrimidin-2-yl)amino)pyridin-3-yl)piperazin-1-yl)acetamido)ethoxy)ethoxy)propanamido)-N-(6-methylpyridazin-3-yl)benzamide], for which, in the assay with cyclin D1, the “CyclinD1 Degradation (200 nM)” value was “A (protein percentage degradation >=80%)”. Further, the inhibition at 0.2 µM at CDK4 was in the range of 50 to 80%.

The record behind these values is patent US20250235543A1, “MODIFIED PROTEINS AND PROTEIN DEGRADERS” (Cullgen (Shanghai), Inc., priority 2021, published 2025).
